Source: patent publication US20190330189A1, “ANTIBACTERIAL COMPOUNDS” (Janssen Sciences Ireland UC, priority 2015, published 2019)
Values after ≈ are worked out from the molar mass of the structure shown. Read-outs that look alike come from different tables or passages of the source.

Key:
[1] = tested on: Mycobacterium tuberculosis strain H37Rv; test: Test 1: MIC determination, resazurin fluorescence, M. tuberculosis H37Rv; assay type: cell-based; conditions: Mycobacterium tuberculosis, H37RV
[2] = tested on: Mycobacterium tuberculosis strain EH 4.0 (361.269); test: Test 4: MIC determination, resazurin fluorescence, strain EH 4.0; assay type: cell-based; conditions: for IC50: Mycobacterium tuberculosis, read-out: pIC50, Test 4, M. tuberculosis strain EH 4.0 (361.269) (converted); for pIC50: Test 4, M. tuberculosis strain EH 4.0 (361.269)
From the text: TEST 4 (See Also Test 1 Above; in this Test a Different Strain of Mycobacterium tuberculosis Strain is Employed)
Appropriate solutions of experimental and reference compounds were made in 96 well plates with 7H9 medium. Samples of Mycobacterium tuberculosis strain EH 4.0 (361.269) were taken from cultures in stationary growth phase. These were first diluted to obtain an optical density of 0.3 at 600 nm wavelength and then diluted 1/100, resulting in an inoculum of approximately 5×10 exp5 colony forming units per well. Plates were incubated at 37° C. in plastic bags to prevent evaporation. After 7 days, resazurin was added to all wells.

[3] = tested on: replicating and non-replicating bacteria; conditions: cited from earlier work
M. tuberculosis H37Rv = conditions: strain M. tuberculosis H37Rv, inside macrophages; cited from earlier work
[4] = Test 1, M. tuberculosis H37Rv, first test, read-out: pIC50 (converted)
[5] = Test 1, repeated (2nd) test, read-out: pIC50 * (converted)
[6] = Test 1, repeated (3rd) test, read-out: pIC50 ** (converted)

Compound | IC50 [2] [nM] | melting point [°C] | further results
CCc1nc2ccc(Cl)cn2c1C(=O)NCc1ccc(N2CC3(C2)CN(c2ccc(OC(F)(F)F)cc2)C3)cc1 [Compound 4] | 5.01 | 184.57 | IC50 [1, 4]: 120 nM
CCc1nc2ncc(Cl)cn2c1C(=O)NCc1ccc(N2CC3(C2)CN(c2ccc(OC(F)(F)F)cc2)C3)cc1 [Compound 5] | 31.6 | 242.43 | IC50 [1, 4]: 69.2 nM; IC50 [1, 5]: 74.1 nM; IC50 [1, 6]: 74.1 nM
CCc1nc2sc(C)cn2c1C(=O)NCc1ccc(N2CC3(CCC3)C2)cc1 [Compound 12] | 31.6 | 300 | IC50 [1, 4]: 129 nM; IC50 [1, 5]: 70.8 nM; IC50 [1, 6]: 107 nM
CCc1nc2ncc(Cl)cn2c1C(=O)NCc1ccc(N2CC3(CC(=O)C3)C2)cc1 [Compound 126] | 10000 | 187.49 | pIC50 [2]: 4.9
Cc1nn2ccccc2c1C(=O)NCc1ccc(C2CC3(C2)CN(c2ccccc2)C3)cc1 [Compound 127] | 126 | 201.15 | pIC50 [2]: 7.0
CCc1nc2ncc(Cl)cn2c1C(=O)NCc1ccc(C2CC3(C2)CN(C(=O)C(F)(F)F)C3)cc1 [Compound 128] | 31.6 | 160.59 | 
Cc1nc2sc(Cl)cn2c1C(=O)NCc1ccc(N2CC3(CC(=O)C3)C2)cc1 [Compound 129] | 398 | 188.46 | pIC50 [2]: 6.5
CCc1nc2n(c1C(=O)NCc1ccc(N3CC4(CC(OC(F)(F)F)C4)C3)cc1)CCCC2 [Compound 130] | 15.8 | 169.56 | 
CCc1nc2ncc(Cl)cn2c1C(=O)NCc1ccc(N2CC3(CC(OC(F)(F)F)C3)C2)cc1 [Compound 131] | 5.01 | 172.76 | 
CCc1nc2ccc(Cl)cn2c1C(=O)NCc1ccc(C2CC3(C2)CN(c2cnccn2)C3)cc1 [Compound 132] | 7940 | 149.46 | 
CCc1nc2ncc(Cl)cn2c1C(=O)NCc1ccc(N2CCC3(CC2)CC(F)(F)C3)cc1 [Compound 133] | 2 | 84.29 | 
CCc1nc2ncc(Cl)cn2c1C(=O)NCc1ccc(C2CC3(C2)CN(c2cncnc2)C3)cc1 [Compound 134] | 6.31 | 188.07 | 
CCc1nn2ccccc2c1C(=O)NCc1ccc(C2CC3(C2)CN(c2ccc(OC(F)(F)F)cc2)C3)cc1 [Compound 138] | 39.8 | 105.98 | 
CCc1nn2c(c1C(=O)NCc1ccc(C3CC4(C3)CN(c3ccc(OC(F)(F)F)cc3)C4)cc1)CCCC2 [Compound 139] | 7940 | 135.21 | 
Cc1nn2ccccc2c1C(=O)NCC1CC2(CCN(c3ccc(OC(F)(F)F)cc3)CC2)C1 [Compound 140] | 1580 | 121.52 | 
Cc1nn2ccccc2c1C(=O)NCc1ccc(C2CC3(C2)CN(c2ccc(OC(F)(F)F)cc2)C3)cc1 [Compound 141] | 31.6 | 158.48 | 
Cc1nn2ccccc2c1C(=O)NCc1ccc(N2CC3(C2)CN(c2ccc(OC(F)(F)F)cc2)C3)cc1 [Compound 142] | 126 | 193.19 | 

Compound | IC50 [2] [nM] | melting point [°C] | further results
Cc1nn2ccccc2c1C(=O)NCc1ccc(N2CC3(CN(F)C3)C2)cc1 [Compound 143] | 398 | 130.31 | 
CCc1nn2ccccc2c1C(=O)NCc1ccc(N2CC3(C2)CN(c2ccc(OC(F)(F)F)cc2)C3)cc1 [Compound 144] | 79.4 | 135.8 | 
CCc1nn2c(Cl)cccc2c1C(=O)NCc1ccc(C2CC3(C2)CN(c2ccc(OC(F)(F)F)cc2)C3)cc1 [Compound 146] | 316 | 119.23 | 
CCc1nn2c(OC)cccc2c1C(=O)NCc1ccc(C2CC3(C2)CN(c2ccc(OC(F)(F)F)cc2)C3)cc1 [Compound 147] | 1260 | 151.74 | 
CCc1nc2ncc(Cl)cn2c1C(=O)NCc1ccc(N2CC3(C2)CC(F)(F)C3)cc1 [Compound 148] | 15.8 | 158.14 | 
CCc1nc2ncc(Cl)cn2c1C(=O)NCc1ccc(N2CC3(CC(Oc4ccc(F)cc4)C3)C2)cc1 [Compound 152] | 15.8 | 350 | 
CCc1nc2ncc(Cl)cn2c1C(=O)NCc1ccc(N2CCC3(CC2)CC(OC(F)(F)F)C3)cc1 [Compound 153] | 2 | 150.61 | 
CCc1nc2c(F)cccn2c1C(=O)NCc1ccc(C2CC3(C2)CN(c2ccc(OC(F)(F)F)cc2)C3)cc1 [Compound 157] | 7940 | 144.55 | 
CCc1nc2ccc(Cl)cn2c1C(=O)NCc1ccc(N2CC3(CC(c4ccnn4C)C3)C2)cc1 [Compound 158] | 398 | 101.95 | 
CCc1nn2ccccc2c1C(=O)NCc1ccc(C2CC3(C2)CN(c2ccc(S(F)(F)(F)(F)F)cc2)C3)cc1 [Compound 159] | 39.8 | 177.08 | 
Cc1nn2ccccc2c1C(=O)NCc1ccc(C2CC3(C2)CN(c2ccc(S(F)(F)(F)(F)F)cc2)C3)cc1 [Compound 160] | 31.6 | 166.29 | 
CCc1nn2ccccc2c1C(=O)NCc1ccc(N2CC3(CC(c4ccc(OC(F)(F)F)cc4)C3)C2)cc1 [Compound 161] | 2510 | 126.57 | 
Cc1nn2ccccc2c1C(=O)NCc1ccc(N2CC3(C2)CN(c2ccc(S(F)(F)(F)(F)F)cc2)C3)cc1 [Compound 162] | 7940 | 238.06 | 
CCc1nc2ccc(Cl)cn2c1C(=O)NCc1ccc(N2CC3(CCC3)C2)cc1 [Compound 163] | 7940 | 142.39 | 
CCc1nc2ccc(Cl)cn2c1C(=O)NCC1CC2(C1)CN(c1ccc(OC(F)(F)F)cc1)C2 [Compound 164] | 7940 | 165.12 | 
CCc1nn2ccccc2c1C(=O)NCC1CC2(C1)CN(c1ccc(OC(F)(F)F)cc1)C2 [Compound 165] | 7940 | 150.69 | 
CCc1nc2ccc(Cl)cn2c1C(=O)NCc1ccc(N2CCC(c3ccc(OC(F)(F)F)cc3)CC2)cc1 [Compound Q203, Q203] |  |  | activity against replicating and non-replicating bacteria [3]: highly active; MIC50 (M. tuberculosis H37Rv): 0.28 nM (≈ 0.156 ng/mL)
